How the values were obtained:
[1] = micromolar range; cited from earlier work
[2] = test system: mouse dorsal root ganglion (DRG) neurons; conditions: purified compounds, 20 μg / mL, K+-stimulated
[3] = test system: other serotonin receptors; assay: PDSP primary binding assay at 10 μM, other serotonin receptors; parameters: species or system human; conditions: from Ki at 5-HT2B vs no significant binding at 10 μM

| Structure (SMILES) | antihypotensive activity [1] | effect on Ca2+ influx in DRG cells [2] | selectivity for 5-HT2B over related receptors [3] |
| --- | --- | --- | --- |
| O=C(O)c1csc(-c2ccccc2O)n1 [Aeruginoic acid] | exhibited antihypotensive activity |  |  |
| NC(=O)C1CSC(c2ccccc2O)=N1 (centres unmarked) [Compound 3, pulicatin G] |  | observably increased Ca^2+ influx |  |
| C[C@@H]1SC(c2ccccc2O)=N[C@@H]1CO [Compound 6, Pulicatin A] |  | decreased Ca^2+ influx | at least 20 fold |
| OC[C@@H]1CSC(c2ccccc2O)=N1 [Compound 1, aerugine] |  | observably increased Ca^2+ influx |  |
